Source: patent US10981894B2, “Melanocortin subtype-2 receptor (MC2R) antagonists and uses thereof” (Crinetics Pharmaceuticals, Inc., priority 2018, dated 2021)

Molecular target: hMC2 receptor (Homo sapiens, UniProt Q01718)
Assay: hMC2 membrane binding assay ([125I]ACTH (1-39) Tyr23, SPA)
Design: scale not given here
Conditions: crude hMC2R membranes from CRE-bla-CHO-K1 cells expressing hMC2 receptor and hMRAP; [125I]ACTH (1-39) Tyr23 0.2 nM; 1.5 hours at room temperature; read-out: MC2R binding potency
Method in brief: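 Ki comes from non-linear regression of SPA scintillation counts. Displacement of 0.2 nM [125I]ACTH(1-39) Tyr23 by compound dose series (usually 0–10,000 nM final) ran 1.5 h at room temperature. Membranes came from CHO-K1 CRE-bla cells stably expressing hMC2R plus hMRAP, bead-coupled in pH 7.4 buffer with 0.2% BSA.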

Chain of hMC2 receptor (Q01718 whole entry): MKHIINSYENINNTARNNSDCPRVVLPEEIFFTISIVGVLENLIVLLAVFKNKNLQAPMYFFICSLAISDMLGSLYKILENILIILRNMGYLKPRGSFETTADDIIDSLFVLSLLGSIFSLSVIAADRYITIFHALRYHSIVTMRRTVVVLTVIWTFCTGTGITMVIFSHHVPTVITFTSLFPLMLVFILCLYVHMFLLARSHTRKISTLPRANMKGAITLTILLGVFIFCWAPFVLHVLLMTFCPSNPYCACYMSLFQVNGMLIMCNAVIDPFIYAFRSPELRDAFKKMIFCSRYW
Chain of hMC2 receptor (Q8TCY5 whole entry partner): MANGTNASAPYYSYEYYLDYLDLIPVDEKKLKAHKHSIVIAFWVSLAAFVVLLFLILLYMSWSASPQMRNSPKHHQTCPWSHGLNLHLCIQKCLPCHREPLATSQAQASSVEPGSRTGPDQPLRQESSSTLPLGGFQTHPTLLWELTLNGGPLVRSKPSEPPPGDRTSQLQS

Ki [nM]	Structure (SMILES)
< 10	CCOc1ccccc1-c1ccc(N2CCN(C(=O)c3ccc(OC)nc3C(F)(F)F)C[C@H]2CC)c(C(=O)N[C@@H]2CCNC2)n1 [Compound 1-254, 6-(2-ethoxyphenyl)-3-[(2R)-2-ethyl-4-[6-methoxy-2-(trifluoromethyl)pyridine-3-carbonyl]piperazin-1-yl]-N-[(3R)-pyrrolidin-3-yl]pyridine-2-carboxamide]
< 10	CCOc1ncccc1-c1ccc(N2CCN(C(=O)c3ccc(Cl)cc3C(F)(F)F)C[C@H]2CC)c(C(=O)N[C@H]2CNC[C@H]2F)n1 [Compound 1-275, 5-[(2R)-4-[4-chloro-2-(trifluoromethyl)benzoyl]-2-ethylpiperazin-1-yl]-2′-ethoxy-N-[(3S,4R)-4-fluoropyrrolidin-3-yl]-[2,3′-bipyridine]-6-carboxamide]
< 10	CCOc1ccccc1-c1ccc(N2CCN(C(=O)c3ccc(Cl)cc3C(F)F)C[C@H]2CC)c(C(=O)N[C@@H]2CCN(C)C2)n1 [Compound 1-287, 3-[(2R)-4-[4-chloro-2-(difluoromethyl)benzoyl]-2-ethylpiperazin-1-yl]-6-(2-ethoxyphenyl)-N-[(3R)-1-methylpyrrolidin-3-yl]pyridine-2-carboxamide]
< 10	CCOc1ncccc1-c1ccc(N2CCN(C(=O)c3ccc(OC)nc3C(F)(F)F)C[C@H]2CC)c(C(=O)N[C@@H]2CCN(C)C2)c1F [Compound 1-270, 3-(2-ethoxypyridin-3-yl)-6-[(2R)-2-ethyl-4-[6-methoxy-2-(trifluoromethyl)pyridine-3-carbonyl]piperazin-1-yl]-2-fluoro-N-[(3R)-1-methylpyrrolidin-3-yl]benzamide]
< 10	CCOc1ncccc1-c1ccc(N2CCN(C(=O)c3ccc(OC)nc3C(F)(F)F)C[C@H]2CC)c(C(=O)N[C@@H]2CN(C)C[C@H]2F)n1 [Compound 1-290, 2′-ethoxy-5-[(2R)-2-ethyl-4-[6-methoxy-2-(trifluoromethyl)pyridine-3-carbonyl]piperazin-1-yl]-N-[(3R,4R)-4-fluoro-1-methylpyrrolidin-3-yl]-[2,3′-bipyridine]-6-carboxamide]
< 10	CCOc1ncccc1-c1ccc(N2CCN(C(=O)c3ccc(Cl)cc3N3CCC(N)CC3)C[C@H]2CC)c(C(=O)NCCN)c1 [Compound 1-52, N-(2-aminoethyl)-2-[(2R)-4-[2-(4-aminopiperidin-1-yl)-4-chlorobenzoyl]-2-ethylpiperazin-1-yl]-5-(2-ethoxypyridin-3-yl)benzamide]
< 10	CCNc1ccc(C(=O)N2CCN(c3ccc(-c4cccnc4OCC)nc3C(=O)NCCNC)[C@H](CC)C2)c(C(F)(F)F)n1 [Compound 1-225, 2′-ethoxy-5-[(2R)-2-ethyl-4-[6-(ethylamino)-2-(trifluoromethyl)pyridine-3-carbonyl]piperazin-1-yl]-N-[2-(methylamino)ethyl]-[2,3′-bipyridine]-6-carboxamide]
